In US10085955B2, “Methods and compositions for treatment of demyelinating diseases” (Pathologica LLC, priority 2013, dated 2018):

How the values were obtained:
[1] = system: carrageenan-induced paw edema and hyperalgesia; assay: Carrageenan paw test for edema and hyperalgesia; assay type: in vivo, Swiss Webster mice
Text: Injection of carrageenan subcutaneously into the hind foot (paw) of a rat or mouse induces robust inflammation and pain. The inflammatory response begins 1-2 hrs post-carrageenan injection and persists for at least five hours following inoculation. In addition, the animal's inflamed hind paw is sensitive to noxious (hyperalgesia) or innocuous (allodynia) stimuli, compared to the contralateral hind paw. Compounds can be evaluated in this model for anti-hyperalgesia and anti-inflammatory activity. […] It is possible that some compounds will affect the inflamed paw and not affect the responses of the contralateral paw.
Embodiments of the carrageenan foot edema test are performed with materials, reagents and procedures essentially as described by Winter, et al., (Proc. Soc. Exp. Biol. Med., 111, 544 (1962)). Prophylactic and therapeutic embodiments have been developed, and are known in the art. The animals are evaluated for their responsiveness to noxious (paw pinch, plantar test) or innocuous (cold plate, von Frey filaments) stimuli. In the following protocol, mice were used.
Healthy young male Swiss Webster mice in which weight variation of the mice will not exceed ±20% of the mean were used for the study. Animals were divided into four groups of forty, and each group was dosed by oral gavage with either MGBG (BID, 12 hours apart at 30 mg/kg in 5 mL/kg normal saline), dexamethasone as positive control (QD, 1 mg/kg in 5 mL/kg 0.5% methylcellulose), or saline vehicle (BID, 5 mL/kg). […]
Immediately before sub-plantar administration of carrageenan and after 2, 3, 5 and 24 hours post carrageenan, mouse paw volume was measured using the plethysmometer (Ugo Basile). The assessment of edema was expressed as the mean increase in paw volume relative to control.
Prior to sub-plantar administration of carrageenan and after 0.5, 2, 3, 5, and 24 hours post-carrageenan, the latency of withdrawal response was determined by placing mice on a hot plate analgesia meter with surface temperature maintained at 51° C. […] Paw withdrawal latency is calculated as Δt=right paw withdrawal—left paw withdrawal. […]

[2] = system: MOG-induced experimental autoimmune encephalomyelitis (EAE); assay: First MOG EAE protocol (murine multiple sclerosis model); assay type: in vivo, C57BL/6 mice
Text: An experimental murine model of multiple sclerosis employing a myelin oligodendrocyte glycoprotein (MOG) peptide to induce experimental autoimmune encephalomyelitis (EAE) was employed to determine the efficacy of MGBG in preventing and treating that disease. Because of its many similarities to MS, EAE is commonly used to study pathogenesis of autoimmunity, CNS inflammation, demyelination, cell trafficking, and tolerance induction. EAE is characterized by paralysis (in some models the paralysis is remitting-relapsing), CNS inflammation and demyelination. EAE is mediated primarily by dendritic cells, myelin-specific T cells (e.g. Th1 and Th17), and M1 macrophages. B cells may also play a role in some models of EAE. Body weight also tracks disease progression. EAE is induced in C57BL/6 mice by immunization with MOG35-55 or MOG1-125 in CFA emulsion followed by administration of pertussis toxin (PTX) in PBS. The emulsion provides antigen which initiates expansion and differentiation of MOG-specific autoimmune T cells. PTX enhances EAE development by providing additional adjuvant and facilitating entrance of autoimmune T cells into the CNS.
Chronic EAE develops in C57BL/6 mice after immunization with an emulsion of MOG35-55/CFA or MOG1-125/CFA followed by injection of pertussis toxin. This model is used to test the potential of compounds to prevent or mitigate EAE disease. It can be run with the compound dosed from the time of immunization (prophylactic treatment), or with the aim of reversing the course of disease and facilitating recovery by dosing the compound from the time of EAE onset (therapeutic treatment). The model uses female C57BL/6 mice of age 10 to 14 weeks at the start of the study. Typically, EAE develops 8-18 days after immunization. EAE development is usually followed for 4 weeks (28 days) after immunization.
In prophylactic studies, treatment begins before disease onset, at the time of immunization and group assignment. Mice are assigned to treatment groups in a balanced manner to achieve groups with similar distributions of body weights. Prophylactic studies assess if treatment will affect the course of disease both before and after the first clinical signs of EAE. To compensate for the stress of treatment in prophylactic treatment studies and achieve the target disease severity, EAE may be induced with a higher dose of pertussis toxin than used in therapeutic studies. The dose of pertussis toxin is based on expected stress due to dosing (route, frequency, and formulation of vehicle).
Clinically, EAE progression is scored on a scale of 0 to 5, wherein each score represents the following clinical observations:
Inflammatory foci of approximately 20 cells were counted in each H&E stained section. When inflammatory infiltrates consisted of more than 20 cells, an estimate was made of how many foci of 20 cells were present.
The demyelination score represents an estimate of demyelinated area for each section as follows:
Unless otherwise noted, statistical analysis was performed as follows: disease incidence compared using chi-square test; mean day of EAE onset, change in body weight, and number of apoptotic cells compared using 2-tailed Student's t-test; median day of EAE onset compared using Wilcoxon's survival test; mean maximum score (MMS), end score, and demyelination scores (LFB and H&E) compared using Wilcoxon's non-parametric test.
Ten week old female C57BL/6 mice weighing 18-23 g (Taconic Farms) were divided into four groups: mock immunized (n=3) and three MOG-immunized groups receiving MGBG at 30 mpk BID (as the di-HCl monohydrate with a correction factor of 1.49), fingolimod (FTY720) at 3 mpk QD with a second mock vehicle dose, or 0.9% saline vehicle BID (n=12 each). […]

CC(/C=N/NC(=N)N)=N\NC(=N)N [MGBG, 1,1′ [methylethanediylidene]dinitrilodiguanidine]
efficacy at lower doses ([1]; mice, 3 mg/kg PO BID and 10 mg/kg PO BID): observed efficacy | edema and hyperalgesia ([1]; mice, MGBG PO BID (30 mg/kg; alternative 3, 10, 30 mg/kg)): efficacious in reducing edema and hyperalgesia | top efficacious dose ([1]; murine carrageenan-induced paw edema and hyperalgesia models): 30 mg/kg PO BID | mean clinical score (scale 0 to 5) ([2]; first 28-day study, MGBG 30 mpk BID, fingolimod 3 mpk QD, throughout/duration of experiment): below 1 | body weight, mean percent of baseline (study start) ([2]; first study, day 11): ~115% | body weight, mean percent of baseline (study start) ([2]; first study, day 24): about 108% | spinal cord histopathology (neuroinflammation, demyelination, apoptosis) ([2]; first study, day 28): reduces histopathological signs of MS | day first clinical signs became evident ([2]; first study, MGBG 30 mpk BID (vehicle day 10)): 15 days
